Where two headings read alike, the source gives them in different places.
Test system: test plant species
Assay: Post-emergent herbicidal activity test (greenhouse, foliar spray, visual growth reduction)
Type: in vivo
Conditions: post-emergence, 336 h, 140 g ai/ha
In short: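 Scoring used a 0 to 100 percent visual scale of growth reduction against solvent-treated controls, read 14 d after spraying. Applications went onto plants at first or second true leaf stage, 187 L/ha, with crop oil concentrate and X-77 surfactant in the carrier. Post-treatment watering was by subirrigation to avoid wash-off.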

[1] = ALOMY: blackgrass (Alopecurus myosuroides), 14 days after application, read-out: Visual Growth Reduction (%) 14 Days After Application, ALOMY
[2] = AMARE: redroot pigweed (Amaranthus retroflexus), 14 days after application, read-out: Visual Growth Reduction (%) 14 Days After Application, AMARE
[3] = AVEFA: wild oat (Avena fatua), 14 days after application, read-out: Visual Growth Reduction (%) 14 Days After Application, AVEFA
[4] = CHEAL: lambsquarters (Chenopodium album), 14 days after application, read-out: Visual Growth Reduction (%) 14 Days After Application, CHEAL
[5] = CIRAR: canada thistle (Cirsium arvense), 14 days after application, read-out: Visual Growth Reduction (%) 14 Days After Application, CIRAR
[6] = CYPES: yellow nutsedge (Cyperus esculentus), 14 days after application, read-out: Visual Growth Reduction (%) 14 Days After Application, CYPES
[7] = DIGSA: crabgrass (Digitaria sanguinalis), 14 days after application, read-out: Visual Growth Reduction (%) 14 Days After Application, DIGSA
[8] = ECHCG: barnyardgrass (Echinochloa crus-galli), 14 days after application, read-out: Visual Growth Reduction (%) 14 Days After Application, ECHCG
[9] = IPOHE: ivy-leaf morning glory (Ipomoea hederacea), 14 days after application, read-out: Visual Growth Reduction (%) 14 Days After Application, IPOHE
[10] = KCHSC: kochia (Bassia scoparia), 14 days after application, read-out: Visual Growth Reduction (%) 14 Days After Application, KCHSC
[11] = ORYSA: rice (Oryza sativa), 14 days after application, read-out: Visual Growth Reduction (%) 14 Days After Application, ORYSA
[12] = SETFA: giant foxtail (Setaria faberi), 14 days after application, read-out: Visual Growth Reduction (%) 14 Days After Application, SETFA
[13] = SORVU: grain sorghum (Sorghum vulgare), 14 days after application, read-out: Visual Growth Reduction (%) 14 Days After Application, SORVU
[14] = STEME: common chickweed (Stellaria media), 14 days after application, read-out: Visual Growth Reduction (%) 14 Days After Application, STEME
[15] = TRZAS: wheat, spring (Triticum aestivum), 14 days after application, read-out: Visual Growth Reduction (%) 14 Days After Application, TRZAS
[16] = blackgrass (Alopecurus myosuroides), 14 Days After Application, read-out: Visual Growth Reduction (%) ALOMY
[17] = canada thistle (Cirsium arvense), 14 Days After Application, read-out: Visual Growth Reduction (%) CIRAR
[18] = crabgrass (Digitaria sanguinalis), 14 Days After Application, read-out: Visual Growth Reduction (%) DIGSA
[19] = lambsquarters (Chenopodium album), 14 Days After Application, read-out: Visual Growth Reduction (%) CHEAL
[20] = redroot pigweed (Amaranthus retroflexus), 14 Days After Application, read-out: Visual Growth Reduction (%) AMARE
[21] = wild oat (Avena fatua), 14 Days After Application, read-out: Visual Growth Reduction (%) AVEFA
[22] = yellow nutsedge (Cyperus esculentus), 14 Days After Application, read-out: Visual Growth Reduction (%) CYPES

Compound | pest or weed control at 140 g/ha [1] [%] | pest or weed control at 140 g/ha [2] [%] | pest or weed control at 140 g/ha [3] [%] | pest or weed control at 140 g/ha [4] [%] | pest or weed control at 140 g/ha [5] [%] | pest or weed control at 140 g/ha [6] [%] | pest or weed control at 140 g/ha [7] [%] | pest or weed control at 140 g/ha [8] [%] | pest or weed control at 140 g/ha [9] [%] | pest or weed control at 140 g/ha [10] [%] | pest or weed control at 140 g/ha [11] [%] | pest or weed control at 140 g/ha [12] [%] | pest or weed control at 140 g/ha [13] [%] | pest or weed control at 140 g/ha [14] [%] | pest or weed control at 140 g/ha [15] [%] | also measured
COC(=O)c1nc(-c2cc3c(cc2F)OC(F)(F)O3)c(Cl)cc1Cl [F174, Methyl 3,5-dichloro-6-(2,2,6-trifluorobenzo[d] [1,3]dioxol-5-yl)picolinate] | 0 to 29 | 85 to 94 | 0 to 29 | 85 to 94 | 0 to 29 | 0 to 29 | 85 to 94 | 0 to 29 | 95 to 100 | 0 to 29 | 0 to 29 | 30 to 44 | 85 to 94 | 0 to 29 | 0 to 29 | 
O=C(OCc1ccncc1)c1nc(-c2ccc(C(F)(F)F)cc2Cl)ccc1Cl [F81, Pyridin-4-ylmethyl 3-chloro-6-(2-chloro-4-(trifluoromethyl)phenyl)picolinate] | 60 to 74 | 95 to 100 | 60 to 74 | 75 to 84 | 95 to 100 | 0 to 29 | 95 to 100 | 95 to 100 | 95 to 100 | 95 to 100 | 60 to 74 | 95 to 100 | 85 to 94 | 0 to 29 | 75 to 84 | 
C#Cc1cc(-c2ccc(C(F)(F)F)cc2Cl)nc(C(=O)OC)c1Cl [F40, methyl 3-chloro-6-(2-chloro-4-(trifluoromethyl)phenyl)-4-ethynylpicolinate] | 0 to 29 | 0 to 29 | 0 to 29 | 0 to 29 | 0 to 29 | 0 to 29 | 0 to 29 | 0 to 29 | 30 to 44 | 0 to 29 | 0 to 29 | 0 to 29 | 60 to 74 | 0 to 29 | 0 to 29 | 
COC(=O)c1nc(-c2ccc(S(C)(=O)=O)cc2)c(F)cc1Cl [F169, Methyl 3-chloro-5-fluoro-6-(4-(methylsulfonyl)phenyl)picolinate] | 0 to 29 | 30 to 44 | 0 to 29 | 30 to 44 | 0 to 29 | 0 to 29 | 30 to 44 | 45 to 59 | 60 to 74 | 30 to 44 | 0 to 29 | 60 to 74 | 60 to 74 | 0 to 29 | 0 to 29 | 
COC(=O)c1nc(-c2ccc(C(F)(F)F)nc2)c(F)cc1Cl [F92, methyl 5-chloro-3-fluoro-6′-(trifluoromethyl)-[2,3′-bipyridine]-6-carboxylate] | 0 to 29 | 0 to 29 | 0 to 29 | 0 to 29 | 0 to 29 | 0 to 29 | 30 to 44 | 0 to 29 | 30 to 44 | 0 to 29 | 0 to 29 | 0 to 29 | 0 to 29 | 0 to 29 | 0 to 29 | 
COC(=O)c1nc(-c2ccc(C(F)(F)F)cc2Cl)cc(C#N)c1Cl [F11, Methyl 3-chloro-6-(2-chloro-4-(trifluoromethyl)phenyl)-4-cyanopicolinate] | 0 to 29 | 0 to 29 | 0 to 29 | 0 to 29 | 30 to 44 | 0 to 29 | 0 to 29 |  |  |  |  |  |  |  |  | pest or weed control at 140 g/ha (barnyardgrass (Echinochloa crus-galli), 14 Days After Application, read-out: Visual Growth Reduction (%) ECHCG): 0 to 29%; pest or weed control at 140 g/ha (giant foxtail (Setaria faberi), 14 Days After Application, read-out: Visual Growth Reduction (%) SETFA): 0 to 29%; pest or weed control at 140 g/ha (ivy-leaf morning glory (Ipomoea hederacea), 14 Days After Application, read-out: Visual Growth Reduction (%) IPOHE): 30 to 44%; pest or weed control at 140 g/ha (johnsongrass (Sorghum vulgare), 14 Days After Application, read-out: Visual Growth Reduction (%) SORVU): 0 to 29%; pest or weed control at 140 g/ha (kochia (Bassia scoparia), 14 Days After Application, read-out: Visual Growth Reduction (%) KCHSC): 0 to 29%; pest or weed control at 140 g/ha (rice (Oryza sativa), 14 Days After Application, read-out: Visual Growth Reduction (%) ORYSA): 0 to 29%; pest or weed control at 140 g/ha (wheat, spring (Triticum aestivum), 14 Days After Application, read-out: Visual Growth Reduction (%) TRZAS): 0 to 29%
COC(=O)c1nc(-c2ccc(C(F)(F)F)cc2Cl)ncc1Cl [F105, Methyl 5-chloro-2-(2-chloro-4-(trifluoromethyl)phenyl)pyrimidine-4-carboxylate] | 0 to 29 | 95 to 100 | 0 to 29 | 85 to 94 | 85 to 94 | 0 to 29 | 85 to 94 | 60 to 74 | 95 to 100 | 60 to 74 | 0 to 29 | 60 to 74 | 75 to 84 | 0 to 29 | 0 to 29 | 
Cc1cc(C(F)(F)F)cc(Cl)c1-c1ccc(Cl)c(C(=O)O)n1 [F259, 3-Chloro-6-(2-chloro-6-methyl-4-(trifluoromethyl)phenyl)picolinic acid] |  |  |  |  |  |  |  | 45 to 59 | 95 to 100 | 60 to 74 | 0 to 29 | 75 to 84 | 85 to 94 | 0 to 29 | 45 to 59 | pest or weed control at 140 g/ha [16]: 0 to 29%; pest or weed control at 140 g/ha [17]: 75 to 84%; pest or weed control at 140 g/ha [18]: 60 to 74%; pest or weed control at 140 g/ha [19]: 75 to 84%; pest or weed control at 140 g/ha [20]: 95 to 100%; pest or weed control at 140 g/ha [21]: 0 to 29%; pest or weed control at 140 g/ha [22]: 0 to 29%
C=C(C)COC(=O)c1nc(-c2ccc(C(F)(F)F)cc2Cl)ccc1Cl [F381, 2-Methylallyl 3-chloro-6-(2-chloro-4-(trifluoromethyl)phenyl)picolinate] |  |  |  |  |  |  |  | 85 to 94 | 95 to 100 | 95 to 100 | 0 to 29 | 85 to 94 | 85 to 94 | 0 to 29 | 60 to 74 | pest or weed control at 140 g/ha [16]: 45 to 59%; pest or weed control at 140 g/ha [17]: 85 to 94%; pest or weed control at 140 g/ha [18]: 85 to 94%; pest or weed control at 140 g/ha [19]: 95 to 100%; pest or weed control at 140 g/ha [20]: 85 to 94%; pest or weed control at 140 g/ha [21]: 45 to 59%; pest or weed control at 140 g/ha [22]: 0 to 29%

— patent publication US20230017045A1, “PYRIDINE AND PYRIMIDINE CARBOXYLATE HERBICIDES AND METHODS OF USE THEREOF” (Dow AgroSciences LLC, priority 2017, published 2023)
